# Source: patent US20120122991A1, “METHOD FOR TREATING CANCER BY INCREASING AMP-ACTIVATED KINASE ACTIVITY” (Dana-Farber Cancer Institute, Inc., priority 2003, published 2012)
# Tests used:
# [1] = test system: mTOR signaling; test: mTOR signaling (S6K1, 4E-BP1 phosphorylation) in transfected HeLa cells; format: cell-based, human; settings: HeLa cells with wild-type LKB1, 2 mM AICAR for 2 h
# Experimental: FIG. 6A: Subconfluent cycling littermate-matched primary MEFs of the indicated genotype were left untreated (NT) or were treated with 2 mM AICAR for 2 h. Total cell extracts were immunoblotted for phospho-Thr172 AMPK (P-AMPK), phospho Ser79 ACC (P-ACC), phospho-Thr389 S6K1 (P-S6K1), phospho-Ser9 GSK-3b (P-GSK-3), and phospho-Ser235/236 S6 ribosomal protein (P-S6). FIG. 6B: An immortalized LKB1−/− MEF cell line was reconstituted with vector (v), wild-type (wt) or kinase-dead (kd) human LKB1-expressing retroviruses. Cells were treated as in FIG. 6A. eIF4E was used as a loading control. *represents a cross-reactive band with the anti-LKB1 antisera as characterized previously (Shaw et al. (2004) Proc. Natl. Acad. Sci. USA 101, 3329-3335). FIG. 6C: Endogenous 5′ cap complexes were isolated from LKB1 primary MEFs as in A. 10% of the total cell lysate is shown in the left panels; cap complexes purified on 7-methyl sepharose are shown in right panels. Each were immunoblotted with total 4E-BP1 and eIF4E antibodies. eIF4E is shown as a loading control. FIG. 6D: Hela cells (which are LKB1-deficient) were transiently transfected with vector, FLAG-tagged wild-type, or kinase-dead LKB1 along with an HA-tagged S6K1 or an HA-tagged 4E-BP1 construct, then treated where indicated with 2 mM AICAR for 2 h. […]
# [2] = test system: AMPK; test: Immunoblot of phospho-Thr172 AMPK and phospho-Ser79 ACC in MEFs; format: cell-based, mouse; settings: 2 mM AICAR for 2 h
# Experimental: FIG. 3a: Littermate MEFs of the indicated LKB1 genotypes were left untreated (NT) or treated with 0.1 mM H2O2 for 20 mins or 2 mM AICAR for 2 h. Total cell extracts were immunoblotted for phospho-Thr 172 AMPK or phospho Ser79 ACC, as well as for total AMPK and LKB1. FIG. 3b: An immortalized LKB1-deficient MEF cell line was reconstituted with human (hu) or mouse (ms) WT or KD LKB1 expressing retroviruses. The asterisk (*) represents a background band that serves as a loading control.
# FIG. 6A: Subconfluent cycling littermate-matched primary MEFs of the indicated genotype were left untreated (NT) or were treated with 2 mM AICAR for 2 h. Total cell extracts were immunoblotted for phospho-Thr172 AMPK (P-AMPK), phospho Ser79 ACC (P-ACC), phospho-Thr389 S6K1 (P-S6K1), phospho-Ser9 GSK-3b (P-GSK-3), and phospho-Ser235/236 S6 ribosomal protein (P-S6). FIG. 6B: An immortalized LKB1−/− MEF cell line was reconstituted with vector (v), wild-type (wt) or kinase-dead (kd) human LKB1-expressing retroviruses. Cells were treated as in FIG. 6A. eIF4E was used as a loading control. *represents a cross-reactive band with the anti-LKB1 antisera as characterized previously (Shaw et al. (2004) Proc. Natl. Acad. Sci. USA 101, 3329-3335). FIG. 6C: Endogenous 5′ cap complexes were isolated from LKB1 primary MEFs as in A. 10% of the total cell lysate is shown in the left panels; cap complexes purified on 7-methyl sepharose are shown in right panels. Each were immunoblotted with total 4E-BP1 and eIF4E antibodies. eIF4E is shown as a loading control. FIG. 6D: Hela cells (which are LKB1-deficient) were transiently transfected with vector, FLAG-tagged wild-type, or kinase-dead LKB1 along with an HA-tagged S6K1 or an HA-tagged 4E-BP1 construct, then treated where indicated with 2 mM AICAR for 2 h. S6K1-immunoprecipitates were immunoblotted for activating phosphorylation of S6K1 as before, as well with anti-HA to control for levels. Lysates were immunoblotted with anti-FLAG to detect levels of LKB1 and with anti-HA to detect phosphorylation induced changes in 4E-BP1 mobility on SDS-PAGE.
# Kinase Assays and Cellular Analysis: AMPK kinase activity was measured using the SAMS peptide as previously described (7). LKB1 phosphorylation of AMPK was carried out in kinase buffer (50 mM Tris pH 7.5, 10 mM MgCl2, 1 mM DTT, 100 μM ATP) for 20 mins at 30° C. For immunopreciptations of active LKB1 kinase, Flag-tagged LKB1 was co-transfected with an equimolar amount of STRAD expression plasmid into HT1080 cells and immunoprecipitated using M2-agarose (Sigma) 24 h post-transfection in NP40 lysis buffer26. Before kinase assays, immunoprecipitated LKB1 was washed 3× in lysis buffer then 2× in kinase buffer. Soluble MBP-AMPK was added at 5 μg per kinase reaction. […]
smiles,measurement,setting,value
"NC(=O)c1ncn([C@@H]2O[C@H](CO)[C@@H](O)[C@H]2O)c1N [AICAR, 5-aminoimidazole-4-carboxamide 1-β-D-ribofuranoside]",S6K1 and 4E-BP1 phosphorylation,[1],inhibition
same,Thr172 phosphorylation of AMPK,[2]; LKB1 null MEFs,complete loss of Thr172 phosphorylation
same,phosphorylation of ACC (Ser79),[2]; LKB1 null MEFs,nearly abolished
same,AMPK activation,[2]; Lkb1-deficient fibroblasts,severely attenuated
same,AMPK activation,[2]; wild-type MEFs,activated
